Values of other authors, collected in patent publication US20230073516A1, “INTRAORAL FAST-DISINTEGRATING FORMULATION CONTAINING HEMP OIL EXTRACT OR HEMP POWDER EXTRACT AS RAW MATERIAL OF FORMULATION” (CTC SCIENCE INC., priority 2019, published 2023).

Settings: absorbed while passing through the gastrointestinal tract

C=C(C)[C@@H]1CCC(C)=C[C@H]1c1c(O)cc(CCCCC)cc1O [cannabidiol]
Bioavailability of cannabidiol: 13-19%
